Structures can show the parent of a compound that is named as a salt.
Columns and labels:
mouse neural stem cells [1] = test: Morphological analysis of treated neural stem cells; type: cell-based; conditions: AS703026, AZD8330 10 μM; PD318088, Trametinib, Refametinib 1 μM; 4 days; FIG. 8A
Method: (§1) Mouse neural stem cells were cultured in accordance with the procedure of Example 1. […] The cells were cultured for 4 days.
(§2) Neurospheres were treated with TrypLE and separated into single cells, which were uniformly seeded into a culture dish coated with 15 μg/ml poly-L-ornithine and 10 μg/ml fibronectin. Following culture, the morphology of the cells was observed.
(§3) In this example, it was confirmed whether dopaminergic neurons were differentiated from neural stem cells.

mouse neural stem cells [2] = test: Real-time RT-PCR of neuronal / dopaminergic markers in cultured neural stem cells; type: cell-based; conditions: 4 days; for Tuj1 (marker of neurons) expression / tyrosine hydroxylase (TH) expression: AS703026, AZD8330 10 μM, PD318088, Trametinib, Refametinib 1 μM; for Tuj1 (marker of neurons) expression: FIG. 8B; for tyrosine hydroxylase (TH) expression: FIG. 8C
Method: Neural stem cells were isolated from the brain of a day 14.5 mouse embryo, treated with 10 ng/ml human basic fibroblast growth factor (bFGF) (Peprotech, Princeton, N.J.) and 20 ng/ml human epidermal growth factor (EGF) (Peprotech) in a N2 culture medium, and cultured in suspension in a 25 cm^2 flask (Nunc, Pittsburgh, Pa.) for 4 days.
Neurospheres were treated with TrypLE and then separated into single cells, which were uniformly seeded into a culture dish coated with 15 μg/ml poly-L-ornithine and 10 μg/ml fibronectin. Following culture, the morphology of the cells was observed.
The N2 culture medium was Dulbecco's modified Eagle's medium (DMEM)/F12 (1:1) supplemented with 100 μM putrescine, 30 nM selenite, 20 nM progesterone, 1.55 mg/ml d-(+)-glucose, 25 μg/ml insulin, […] apo-transferrin, 0.5 mM alanyl glutamine, 100 IU/ml penicillin, and 100 μg/ml streptomycin.
as §1, §2
To this end, real-time (RT) PCR analysis was performed on neuron-specific markers. On day 4 after in vitro differentiation, mRNA expression was identified. The numbers in the graph indicate average values of mRNA expression levels relative to the respective controls from real-time PCR analyses in triplicate.
as §3

neural stem cells = test: Differentiation of neural stem cells into dopaminergic neurons (general statements, no separate method); type: cell-based, mouse; conditions: MEK 1 inhibitor, no MEK 2 inhibition
mouse neural stem cells [3] = test: Immunoblot analysis of marker expression in cultured neural stem cells; type: cell-based
Method: Mouse neural stem cells were cultured in accordance with the procedure of Example 1. […] The cells were cultured for 4 days. Neurospheres were treated with TrypLE and separated into single cells, which were uniformly seeded into a culture dish coated with 15 μg/ml poly-L-ornithine and 10 μg/ml fibronectin. Following culture, the morphology of the cells was observed. In this example, it was confirmed whether dopaminergic neurons were differentiated from neural stem cells. To this end, immunoblot analysis and immunocytochemical analysis were performed on the neural progenitor cells (undifferentiated; UD) cultured in Example 1, the differentiated cells (D) cultured in Comparative Example 1, and the AS703026-treated cells (UD+AS) cultured in Example 2, and the results were compared. The immunoblot analysis was performed by the following procedure. First, the cells were washed with ice-cold phosphate-buffered saline (PBS) and lysed with 1×RIPA buffer (10 mM HEPES, 1.5 mM MgCl2, 10 mM KCl, 0.01 M DTT, protease inhibitors, pH 7.9). The cell homogenate was heated at 100° C. for 10 min and subjected to 10-12% SDS-polyacrylamide gel electrophoresis. Proteins were electrophoretically transferred to a nitrocellulose membrane and blocked with 5% non-fat dry milk in TBS-Tween 20 (0.1%, v/v) for 1 h. Western blotting was performed using anti-Tuj1, anti-GFAP or anti-MBP antibodies and successively horseradish peroxidase-conjugated anti-rabbit or anti-mouse IgG secondary antibodies. The protein bands were visualized using enhanced chemiluminescence (ECL, lab made) and detected with LAS-3000 (FUJIFILM, Tokyo, Japan). FIGS. 4 and 5 show the results of immunoblot analysis (FIG. 4) and immunocytochemical analysis (FIG. 5) for the neural progenitor cells (undifferentiated; UD) cultured in Example 1, the differentiated cells (D) cultured in Comparative Example 1, and the AS703026-treated cells (UD+AS) cultured in Example 2 to determine whether dopaminergic neurons were differentiated from the neural stem cells. […] The AS703026-treated cells were cultured in the same manner as in Example 2. […]

mouse neural stem cells [4] = test: Immunocytochemical analysis of marker expression in cultured neural stem cells; type: cell-based; conditions: 10 μM, 4 days
Method: Mouse neural stem cells were cultured in accordance with the procedure of Example 1. […] The cells were cultured for 4 days. Neurospheres were treated with TrypLE and separated into single cells, which were uniformly seeded into a culture dish coated with 15 μg/ml poly-L-ornithine and 10 μg/ml fibronectin. Following culture, the morphology of the cells was observed. […] In this example, it was confirmed whether dopaminergic neurons were differentiated from neural stem cells. To this end, immunoblot analysis and immunocytochemical analysis were performed on the neural progenitor cells (undifferentiated; UD) cultured in Example 1, the differentiated cells (D) cultured in Comparative Example 1, and the AS703026-treated cells (UD+AS) cultured in Example 2, and the results were compared. The immunocytochemical analysis was performed by the following procedure. First, the cells were fixed in 4% para-formaldehyde at room temperature for 10 min, washed with PBS, and incubated with 0.2% Triton X-100 at room temperature for 15 min. After blocking with 10% BSA at room temperature for 1 h, the cells were incubated with anti-Tuj1 (Covance, Princeton, N.J.), anti-GFAP (Biogenex, San Ramon, Calif.), anti-MBP (Abcam), anti-Ki67 (Abcam), anti-p-ERK1/2 or anti-TH antibodies at 4° C. overnight, and cultured using Alexa Fluor 488- or Alexa Fluor 555-conjugated IgG secondary antibodies (Molecular Probes, Eugene, Oreg.) at room temperature for 1 h. Subsequently, the cells were cultured with 1 μg/ml 4′,6-diamidino-2-phenylindole (DAPI) for 5 min, the inlet was sealed with a coverslip, and the cells were observed using a confocal microscope. FIGS. 4 and 5 show the results of immunoblot analysis (FIG. 4) and immunocytochemical analysis (FIG. 5) for the neural progenitor cells (undifferentiated; UD) cultured in Example 1, the differentiated cells (D) cultured in Comparative Example 1, and the AS703026-treated cells (UD+AS) cultured in Example 2 to determine whether dopaminergic neurons were differentiated from the neural stem cells.

mouse neural stem cells [5] = test: Apoptosis analysis by annexin-V/PI flow cytometry; type: cell-based; conditions: 10 μM, 4 days
Method: Finally, the number of the cells was counted using a FACS Calibur flow cytometer (BD Biosciences, USA). Apoptosis was analyzed as follows. The cells were washed twice with cold PBS, treated with propidium iodide (PI) and Annexin V FITC at room temperature, and cultured for 15 min. PI and FITC fluorescence intensities were measured using a FACS flow cytometer. Data were analyzed with the Cell-quest FACS analysis software (BD Biosciences). The results are shown in FIGS. 2A, 2B, 2C, 3A, 3B and 3C. FIGS. 2A, 2B, 2C, 3A, 3B and 3C show the results of flow cytometry for the neural progenitor cells (undifferentiated; UD) cultured in Example 1, the differentiated cells (D) cultured in Comparative Example 1, and the AS703026-treated cells (UD+AS) cultured in Example 2 to identify the cycles of the cells. Specifically, FIGS. 2A, 2B and 2C are histograms showing the results of flow cytometry for the cells stained with PI. FIGS. 3A, 3B and 3C are scatter plot diagrams showing the results of flow cytometry for the cells stains with annexin-V/PI.

[6] = tested on: ventral midbrains of embryos of pregnant mouse models; test: Intraperitoneal administration to pregnant mice; marker expression in embryonic ventral midbrains (immunocytochemistry, RT-PCR); type: in vivo
Method: After the same amount of distilled water (D.W) as control was administered intraperitoneally to pregnant mouse models at 10.5 days of gestation daily for 4 consecutive days, the expression levels of the markers in the ventral midbrains, where dopaminergic neurons were most abundantly distributed, were analyzed. The control is marked as “Vehicle” in FIGS. 6 and 7.
Proteins and mRNAs isolated from the brains of the sacrificed embryos were analyzed by RT-PCR.

mouse neural stem cells [7] = test: Cell cycle analysis by PI staining and flow cytometry; type: cell-based; conditions: 10 μM, 4 days; PI staining; FIG. 2C
Method: Specifically, the cell cycles were analyzed by the following procedure. First, the cells (Example 1, Example 2, and Comparative Example 1) were washed twice with cold PBS and fixed in cold 70% ethanol for 30 min. The ethanol was removed by centrifugation, the cells were suspended, and the number of the cells was adjusted to 10^6/ml. The cells were washed twice with PBS, treated with 50 μg/ml propidium iodide (PI) at room temperature in the presence of RNase, and cultured for 30 min. Finally, the number of the cells was counted using a FACS Calibur flow cytometer (BD Biosciences, USA). Apoptosis was analyzed as follows. The cells were washed twice with cold PBS, treated with propidium iodide (PI) and Annexin V FITC at room temperature, and cultured for 15 min. PI and FITC fluorescence intensities were measured using a FACS flow cytometer. Data were analyzed with the Cell-quest FACS analysis software (BD Biosciences). The results are shown in FIGS. 2A, 2B, 2C, 3A, 3B and 3C. FIGS. 2A, 2B, 2C, 3A, 3B and 3C show the results of flow cytometry for the neural progenitor cells (undifferentiated; UD) cultured in Example 1, the differentiated cells (D) cultured in Comparative Example 1, and the AS703026-treated cells (UD+AS) cultured in Example 2 to identify the cycles of the cells. […]

[8] = i.p. to pregnant mice from 10.5 days of gestation, daily for 4 days, vs distilled water

Cc1cc(C(=O)NOCCO)c(Nc2ccc(I)cc2F)n(C)c1=O [AZD8330]
morphology of treated cells (mouse neural stem cells [1]): neuron-like morphological changes
Tuj1 (marker of neurons) expression (mouse neural stem cells [2]): expressed only
tyrosine hydroxylase (TH) expression (mouse neural stem cells [2]): expressed only

O=C(NOCC(O)CO)c1cc(Br)c(F)c(F)c1Nc1ccc(I)cc1F (centres unmarked) [PD318088]
morphology of treated cells (mouse neural stem cells [1]): neuron-like morphological changes
Tuj1 (marker of neurons) expression (mouse neural stem cells [2]): expressed only
tyrosine hydroxylase (TH) expression (mouse neural stem cells [2]): expressed only

COc1cc(F)c(F)c(Nc2ccc(I)cc2F)c1NS(=O)(=O)C1(C[C@H](O)CO)CC1 [Refametinib]
morphology of treated cells (mouse neural stem cells [1]): neuron-like morphological changes
Tuj1 (marker of neurons) expression (mouse neural stem cells [2]): expressed only
tyrosine hydroxylase (TH) expression (mouse neural stem cells [2]): expressed only

COc1cccc(-c2cc(=O)c3ccccc3o2)c1N [PD98059]
induction of differentiation of neural stem cells into dopaminergic neurons (neural stem cells): does not induce substantial differentiation

O=C(NC[C@H](O)CO)c1ccncc1Nc1ccc(I)cc1F [AS703026, N-[(2S)-2,3-dihydroxypropyl]-3-[(2-fluoro-4-iodophenyl)amino]isonicotinamide hydrochloride]
expression pattern of TH compared with cells of Example 2 (10 μM) (mouse neural stem cells [3]; 1 μM (UD+AS, 1)): similar
expression pattern of TH compared with cells of Example 2 (10 μM) (mouse neural stem cells [3]; 5 μM (UD+AS, 5)): similar
tyrosine hydroxylase (TH) expression, immunoblot (mouse neural stem cells [3]; 10 μM, 4 days, vs UD and D cells, FIG. 4): expressed only
immune response to GFAP (mouse neural stem cells [4]): No immune responses
immune response to MBP (mouse neural stem cells [4]): No immune responses
number of clusters of dopaminergic neurons from which neurites extended outward (mouse neural stem cells [4]; FIG. 1B): increase
number of dopaminergic neurons differentiated (Tuj1 immunocytochemistry) (mouse neural stem cells [4]; FIG. 1B): considerable increase
tyrosine hydroxylase (TH) expression, immunocytochemistry (mouse neural stem cells [4]; vs UD and D cells, FIG. 5): expressed only
apoptosis (mouse neural stem cells [5]): does not induce apoptosis
morphology of treated cells (mouse neural stem cells [1]): neuron-like morphological changes
number of dopaminergic neurons formed in embryo brains vs non-administered animals ([6]; i.p. to pregnant mice at 10.5 days of gestation): approximately twice as large
expression level of TH in embryo brains vs control [6, 8]: significantly higher
expression level of Tuj1 in embryo brains vs control [6, 8]: significantly higher
immune response to GFAP in embryo brains ([6]; i.p. to pregnant mice, 4 days): No immune responses
immune response to MBP in embryo brains ([6]; i.p. to pregnant mice, 4 days): No immune responses
differentiation into dopaminergic neurons in embryos (RT-PCR) ([6]; i.p. to pregnant mice, 4 days, FIG. 7): increased differentiation
expression level of GFAP (astrocyte differentiation factor) (mouse neural stem cells [2]; 10 μM, compared with Tuj1): lower than that of Tuj1
expression level of MBP (oligodendrocyte differentiation factor) (mouse neural stem cells [2]; 10 μM, compared with Tuj1): lower than that of Tuj1
expression level of Tuj1 (neuronal differentiation factor), times higher than UD and D cells (mouse neural stem cells [2]; 10 μM, vs undifferentiated (UD) and differentiated (D) cells, FIG. 1A): at least 10 times
Tuj1 (marker of neurons) expression (mouse neural stem cells [2]): expressed only
tyrosine hydroxylase (TH) expression (mouse neural stem cells [2]): expressed only
cell cycle (mouse neural stem cells [7]): arrested in the G0/G1 phase

Source: patent publication US10179132B2, “Composition for inducing differentiation of multipotent neural stem cells into dopaminergic neurons and method for inducing differentiation of multipotent neural stem cells into dopaminergic neurons by using the same” (INDUSTRY-ACADEMIC COOPERATION FOUNDATION, YONSEI UNIVERSITY, priority 2015, dated 2019)
